Experiment: Inhibition of angiotensin I phosphorylation catalyzed by the protein-tyrosine kinase p56 lck partially purified from bovine thymus.

Structure (SMILES)	IC50
O=C(Nc1ccncc1)c1cccnc1	2120 µM
COc1ccc(/C=C/c2cccnc2)cc1 [3-[(E)-2-(4-Methoxy-phenyl)-vinyl]-pyridine]	> 3790 µM
COc1cc(OC)cc(C(=O)Nc2ccncc2)c1 [3,5-Dimethoxy-N-pyridin-4-yl-benzamide]	3100 µM
COc1cc(C(=O)Nc2ccncc2)cc(OC)c1OC [3,4,5-Trimethoxy-N-pyridin-4-yl-benzamide]	> 2780 µM
c1cc(CCc2ccncc2)ccn1 [4-(2-pyridin-4-ylethyl)pyridine]	2910 µM
COc1cc(CNc2ccccn2)cc(OC)c1 [(3,5-Dimethoxy-benzyl)-pyridin-2-yl-amine]	> 3280 µM
COc1cc(CNc2ccccn2)cc(OC)c1OC [Pyridin-2-yl-(3,4,5-trimethoxy-benzyl)-amine]	> 2920 µM
O=C(Nc1ccncc1)c1ccncc1 [N-Pyridin-4-yl-isonicotinamide]	2320 µM
COc1cc(CCc2cccnc2)cc(OC)c1OC [3-[2-(3,4,5-Trimethoxy-phenyl)-ethyl]-pyridine]	> 2930 µM
COc1ccc(CCc2cccnc2)cc1OC [3-[2-(3,4-Dimethoxy-phenyl)-ethyl]-pyridine]	1320 µM

Compounds with a lower IC50, results first:

IC50	Structure (SMILES)
1230 µM	C(=C\c1ccccn1)/c1ccccn1 [2-[(E)-2-pyridin-2-ylvinyl]pyridine]
999 µM	COc1cc(C(=O)Nc2cccnc2)cc(OC)c1OC [3,4,5-Trimethoxy-N-pyridin-3-yl-benzamide]
829 µM	COc1ccc(/C=C/c2ccccn2)cc1OC [2-[(E)-2-(3,4-Dimethoxy-phenyl)-vinyl]-pyridine]
205 µM	COc1cc(OC)cc(C(=O)Nc2ccccn2)c1 [3,5-Dimethoxy-N-pyridin-2-yl-benzamide]
178 µM	COc1ccc(/C=C/c2cccnc2)cc1OC [3-(3,4-dimethoxystyryl)pyridine]
